Assay results taken from ChEMBL document CHEMBL3875218, “Bifunctional conjugates with potent inhibitory activity towards cyclooxygenase and histone deacetylase” (Bioorg Med Chem, 2017).
Calls of active or inactive are those of the source. The calls are words filed in the database; no cut-off is given here.

How the values were obtained:
[1] = Cytotoxicity against human MCF7 cells assessed as cell growth inhibition at 100 uM after 72 hrs by MTT assay; assay type: functional; details: MCF7, 72 h, read-out: GI
LNCaP [2] = test: Induction of cell cycle arrest in human LNCAP cells assessed as accumulation at G1 phase at 40 uM after 24 hrs by propidium iodide staining based FACS analysis (reference value: 69.5%); assay type: functional
LNCaP [3] = test: Induction of cell cycle arrest in human LNCAP cells assessed as accumulation at S phase at 40 uM after 24 hrs by propidium iodide staining based FACS analysis (reference value: […]); assay type: functional
LNCaP [4] = test: Induction of cell cycle arrest in human LNCAP cells assessed as accumulation at lesser G1 phase at 40 uM after 24 hrs by propidium iodide staining based FACS analysis (reference value: 1.59%); assay type: functional
LNCaP [5] = test: Induction of cell cycle arrest in human LNCAP cells assessed as accumulation at greater G2 phase at 40 uM after 24 hrs by propidium iodide staining based FACS analysis (reference value: 0.20%); assay type: functional
LNCaP [6] = details: Homo sapiens, at 10 µM
Description: Inhibition of HDAC in human LNCAP cells assessed as down regulation of androgen receptor expression at 10 uM after 24 hrs by Western blot analysis

[7] = target: T1, Prostaglandin G/H synthase 2 (Homo sapiens, UniProt P35354); test: Inhibition of recombinant human COX2 using arachidonic acid as substrate preincubated for 15 mins followed by substrate addition for 2 mins by Cayman based fluorescence assay
T1 sequence (P35354 whole entry): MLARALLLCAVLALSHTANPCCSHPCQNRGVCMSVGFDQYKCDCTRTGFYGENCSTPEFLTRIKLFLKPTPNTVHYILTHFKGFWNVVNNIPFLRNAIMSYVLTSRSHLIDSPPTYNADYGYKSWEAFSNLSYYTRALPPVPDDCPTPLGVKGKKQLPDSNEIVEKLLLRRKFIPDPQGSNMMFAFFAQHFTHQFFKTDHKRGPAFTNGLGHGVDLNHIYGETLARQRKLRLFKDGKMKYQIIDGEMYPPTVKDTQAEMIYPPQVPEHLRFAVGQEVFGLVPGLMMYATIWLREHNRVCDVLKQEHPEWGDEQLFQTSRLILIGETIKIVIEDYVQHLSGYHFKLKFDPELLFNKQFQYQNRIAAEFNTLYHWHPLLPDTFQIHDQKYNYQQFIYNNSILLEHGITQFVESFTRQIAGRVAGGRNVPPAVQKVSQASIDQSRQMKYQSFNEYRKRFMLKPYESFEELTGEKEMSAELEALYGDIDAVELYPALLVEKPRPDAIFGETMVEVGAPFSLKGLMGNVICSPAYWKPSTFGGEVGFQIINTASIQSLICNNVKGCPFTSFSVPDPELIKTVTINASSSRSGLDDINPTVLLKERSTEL

Histone deacetylase 1 = Histone deacetylase 1 (Homo sapiens, UniProt Q13547); test: Inhibition of HDAC1 (unknown origin) after 24 hrs by SAMDI mass spectroscopic analysis
Histone deacetylase 1, sequence (Q13547 whole entry): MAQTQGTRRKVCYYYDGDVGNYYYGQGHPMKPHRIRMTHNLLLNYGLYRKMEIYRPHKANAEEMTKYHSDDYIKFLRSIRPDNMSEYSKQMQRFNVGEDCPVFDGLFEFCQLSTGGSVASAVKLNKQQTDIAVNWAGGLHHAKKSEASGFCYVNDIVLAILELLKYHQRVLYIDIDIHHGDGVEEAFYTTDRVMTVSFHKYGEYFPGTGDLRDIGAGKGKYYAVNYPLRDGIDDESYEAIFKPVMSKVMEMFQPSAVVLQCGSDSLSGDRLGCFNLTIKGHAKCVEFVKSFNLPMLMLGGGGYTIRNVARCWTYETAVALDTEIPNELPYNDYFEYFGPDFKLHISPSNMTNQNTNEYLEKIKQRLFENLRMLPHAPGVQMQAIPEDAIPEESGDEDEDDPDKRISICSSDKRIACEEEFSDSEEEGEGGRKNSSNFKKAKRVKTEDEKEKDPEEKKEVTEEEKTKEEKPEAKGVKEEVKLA

Histone deacetylase 3 = Histone deacetylase 3 (Homo sapiens, UniProt O15379); test: Inhibition of HDAC3 (unknown origin) after 5 hrs by SAMDI mass spectroscopic analysis
Histone deacetylase 3, sequence (O15379 whole entry): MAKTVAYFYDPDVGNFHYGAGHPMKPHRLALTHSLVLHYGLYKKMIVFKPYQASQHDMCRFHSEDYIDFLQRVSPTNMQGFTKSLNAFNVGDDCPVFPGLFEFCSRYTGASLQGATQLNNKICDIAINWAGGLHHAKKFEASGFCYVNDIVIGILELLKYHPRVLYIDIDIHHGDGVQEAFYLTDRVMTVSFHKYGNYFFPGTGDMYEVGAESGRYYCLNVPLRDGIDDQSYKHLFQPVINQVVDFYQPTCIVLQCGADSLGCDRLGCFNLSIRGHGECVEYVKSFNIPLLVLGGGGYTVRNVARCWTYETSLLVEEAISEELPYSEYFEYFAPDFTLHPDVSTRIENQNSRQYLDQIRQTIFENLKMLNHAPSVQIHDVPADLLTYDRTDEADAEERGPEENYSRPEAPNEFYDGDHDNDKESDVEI

[8] = target: T2, Protein deacetylase HDAC6 (Homo sapiens, UniProt Q9UBN7); test: Inhibition of HDAC6 (unknown origin) after 20 hrs by SAMDI mass spectroscopic analysis
T2 sequence (Q9UBN7 whole entry): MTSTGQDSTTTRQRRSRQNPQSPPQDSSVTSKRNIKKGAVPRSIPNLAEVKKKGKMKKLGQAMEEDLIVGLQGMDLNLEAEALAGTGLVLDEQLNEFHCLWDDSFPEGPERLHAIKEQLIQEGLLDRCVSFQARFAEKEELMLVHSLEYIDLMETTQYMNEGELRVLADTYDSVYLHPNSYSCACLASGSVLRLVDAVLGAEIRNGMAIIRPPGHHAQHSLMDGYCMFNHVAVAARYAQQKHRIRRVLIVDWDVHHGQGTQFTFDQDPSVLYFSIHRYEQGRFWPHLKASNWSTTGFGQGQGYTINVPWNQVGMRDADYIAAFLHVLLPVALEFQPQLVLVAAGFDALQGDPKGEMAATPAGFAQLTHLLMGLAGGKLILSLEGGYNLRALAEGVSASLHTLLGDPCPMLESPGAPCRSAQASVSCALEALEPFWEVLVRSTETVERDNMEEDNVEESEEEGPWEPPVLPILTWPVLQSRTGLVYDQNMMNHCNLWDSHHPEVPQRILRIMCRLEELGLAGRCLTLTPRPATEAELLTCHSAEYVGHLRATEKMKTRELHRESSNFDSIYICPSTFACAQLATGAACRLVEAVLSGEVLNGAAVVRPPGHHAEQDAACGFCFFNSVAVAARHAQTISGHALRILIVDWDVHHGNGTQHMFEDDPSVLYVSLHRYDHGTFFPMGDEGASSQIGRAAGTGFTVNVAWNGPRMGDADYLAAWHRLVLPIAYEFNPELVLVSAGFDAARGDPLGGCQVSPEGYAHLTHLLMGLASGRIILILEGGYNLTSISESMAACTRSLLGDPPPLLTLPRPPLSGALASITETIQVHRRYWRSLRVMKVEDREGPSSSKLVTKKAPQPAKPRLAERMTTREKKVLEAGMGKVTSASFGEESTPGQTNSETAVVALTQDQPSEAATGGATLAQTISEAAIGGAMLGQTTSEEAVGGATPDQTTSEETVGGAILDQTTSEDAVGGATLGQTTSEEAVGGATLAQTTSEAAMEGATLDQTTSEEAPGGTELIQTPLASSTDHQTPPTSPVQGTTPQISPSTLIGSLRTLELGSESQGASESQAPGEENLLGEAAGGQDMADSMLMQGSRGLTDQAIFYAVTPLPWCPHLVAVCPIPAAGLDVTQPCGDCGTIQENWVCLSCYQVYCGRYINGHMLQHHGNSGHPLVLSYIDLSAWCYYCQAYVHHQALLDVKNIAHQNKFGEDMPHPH

Histone deacetylase 8 = target: T3, Histone deacetylase 8 (Homo sapiens, UniProt Q9BY41); test: Inhibition of HDAC8 (unknown origin) after 2.5 hrs by SAMDI mass spectroscopic analysis
T3 sequence (Q9BY41 whole entry): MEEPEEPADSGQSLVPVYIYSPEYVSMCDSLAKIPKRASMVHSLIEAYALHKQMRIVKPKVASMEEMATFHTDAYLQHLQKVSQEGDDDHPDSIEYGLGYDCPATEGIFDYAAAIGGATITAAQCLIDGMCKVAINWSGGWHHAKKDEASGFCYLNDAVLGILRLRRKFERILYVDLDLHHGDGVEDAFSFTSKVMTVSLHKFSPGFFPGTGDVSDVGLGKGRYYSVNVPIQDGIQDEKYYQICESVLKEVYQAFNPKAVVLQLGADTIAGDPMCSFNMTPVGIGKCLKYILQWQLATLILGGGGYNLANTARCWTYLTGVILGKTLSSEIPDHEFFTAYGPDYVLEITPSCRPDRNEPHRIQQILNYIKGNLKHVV

[9] = target: T4, Prostaglandin G/H synthase 2 (Homo sapiens) (UniProt P35354); test: Inhibition of recombinant human COX2 at 10 uM using arachidonic acid as substrate preincubated for 15 mins followed by substrate addition for 2 mins by Cayman based fluorescence assay
T4 sequence (whole entry): T1 sequence (P35354 whole entry)

LNCaP [10] = test: Induction of cell cycle arrest in human LNCAP cells assessed as accumulation at lesser G1 phase at 2.5 uM after 24 hrs by propidium iodide staining based FACS analysis (reference value: 1.59%); assay type: functional
LNCaP [11] = test: Induction of cell cycle arrest in human LNCAP cells assessed as accumulation at G1 phase at 2.5 uM after 24 hrs by propidium iodide staining based FACS analysis (reference value: 69.5%); assay type: functional
LNCaP [12] = test: Induction of cell cycle arrest in human LNCAP cells assessed as accumulation at S phase at 2.5 uM after 24 hrs by propidium iodide staining based FACS analysis (reference value: […]); assay type: functional
LNCaP [13] = test: Induction of cell cycle arrest in human LNCAP cells assessed as accumulation at G2 phase at 2.5 uM after 24 hrs by propidium iodide staining based FACS analysis (reference value: 1.08%); assay type: functional
LNCaP [14] = test: Induction of cell cycle arrest in human LNCAP cells assessed as accumulation at greater G2 phase at 2.5 uM after 24 hrs by propidium iodide staining based FACS analysis (reference value: 0.20%); assay type: functional
BEAS2B = details: Homo sapiens, at 1 µM
Description: Inhibition of HDAC in human BEAS2B cells assessed as reduction of NTHi-induced NFkappaB activation at 1 uM preincubated for 1 hr followed by NTHi stimulation for 5 hrs by luciferase reporter gene assay

Histone deacetylase 2 = Histone deacetylase 2 (Homo sapiens, UniProt Q92769); test: Inhibition of HDAC2 (unknown origin) after 24 hrs by SAMDI mass spectroscopic analysis
Histone deacetylase 2, sequence (Q92769 whole entry): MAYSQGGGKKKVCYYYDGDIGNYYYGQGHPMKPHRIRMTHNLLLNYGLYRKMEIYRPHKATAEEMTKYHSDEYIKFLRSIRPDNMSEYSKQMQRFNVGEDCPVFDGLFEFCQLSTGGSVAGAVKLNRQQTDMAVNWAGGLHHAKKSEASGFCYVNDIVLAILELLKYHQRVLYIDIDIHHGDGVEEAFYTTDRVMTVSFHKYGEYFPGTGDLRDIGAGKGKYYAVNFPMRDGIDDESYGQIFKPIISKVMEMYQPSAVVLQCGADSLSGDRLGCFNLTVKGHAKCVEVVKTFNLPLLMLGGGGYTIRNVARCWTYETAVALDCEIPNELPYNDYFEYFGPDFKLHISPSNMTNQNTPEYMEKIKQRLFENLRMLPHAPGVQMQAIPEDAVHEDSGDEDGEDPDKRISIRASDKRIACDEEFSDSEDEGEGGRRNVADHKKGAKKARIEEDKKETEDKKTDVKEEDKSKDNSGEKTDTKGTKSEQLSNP

[15] = Cytotoxicity against human HCT116 cells assessed as cell growth inhibition after 72 hrs by MTT assay; assay type: functional, cell-based; details: HCT-116, 72 h
LNCaP [16] = test: Induction of cell cycle arrest in human LNCAP cells assessed as accumulation at G2 phase at 40 uM after 24 hrs by propidium iodide staining based FACS analysis (reference value: 1.08%); assay type: functional
[17] = Cytotoxicity against human MCF7 cells assessed as cell growth inhibition after 72 hrs by MTT assay; assay type: functional, cell-based; details: MCF7, 72 h
[18] = Cytotoxicity against human A549 cells assessed as cell growth inhibition after 72 hrs by MTT assay; assay type: functional, cell-based; details: A549, 72 h
[19] = Cytotoxicity against human LNCAP cells assessed as cell growth inhibition after 72 hrs by MTT assay; assay type: functional, cell-based
[20] = Cytotoxicity against human DU145 cells assessed as cell growth inhibition after 72 hrs by MTT assay; assay type: functional, cell-based; details: DU-145, 72 h
[21] = Cytotoxicity against African green monkey Vero cells assessed as cell growth inhibition after 72 hrs by MTT assay; assay type: toxicity, cell-based; details: African green monkey (Chlorocebus sabaeus)
[22] = Cytotoxicity against human HeLa cells assessed as cell growth inhibition after 72 hrs by MTT assay
[23] = target: T5, Protein deacetylase HDAC6 (Homo sapiens) (UniProt Q9UBN7); test: Inhibition of HDAC6 in human LNCAP cells assessed as acetylated tubulin accumulation in cytosol at 1.5 uM after 24 hrs by Western blot analysis; assay type: cell-based
T5 sequence (whole entry): T2 sequence (Q9UBN7 whole entry)

LNCaP [24] = test: Inhibition of class 1 HDAC in human LNCAP cells assessed as acetylated histone H4 accumulation at 1.5 uM after 24 hrs by Western blot analysis; assay type: cell-based
LNCaP [25] = test: Inhibition of HDAC in human LNCAP cells assessed as down regulation of COX2 expression at 1.5 uM after 24 hrs by Western blot analysis; assay type: cell-based

| SMILES | inhibition of growth at 100 µM [1] | Activity (LNCaP [2]) | Activity (LNCaP [3]) | Activity (LNCaP [4]) | Activity (LNCaP [5]) | IC50 (Histone deacetylase 1) | IC50 (Histone deacetylase 3) | IC50 [8] | IC50 (Histone deacetylase 8) | inhibition [9] | Activity (LNCaP [10]) | Activity (LNCaP [11]) | Activity (LNCaP [12]) | Activity (LNCaP [13]) | Activity (LNCaP [14]) | inhibition (BEAS2B) | IC50 (Histone deacetylase 2) | IC50 [15] | other results |
| --- | --- | --- | --- | --- | --- | --- | --- | --- | --- | --- | --- | --- | --- | --- | --- | --- | --- | --- | --- |
| COc1ccc2c(c1)c(CC(=O)O)c(C)n2C(=O)c1ccc(Cl)cc1 [INDOMETHACIN] | 5.2% | 71.5% | 23.5% | 2.81% | 0.88% | – | – | – | – | – | – | – | – | – | – | – | – | – | inhibition (LNCaP [6]): Active |
| Cc1ccc(-c2cc(C(=O)NCCCCCCC(=O)NO)nn2-c2ccc(S(C)(=O)=O)cc2)cc1 | – | – | – | – | – | 261 nM | 338 nM | 50 nM | 345 nM | 60.2% | 0.029% | 85.9% | 13.8% | 0.5% | 0.21% | Active | – | – | IC50 [7]: 4440 nM |
| COc1ccc2c(c1)c(CC(=O)O)c(C)n2Cc1ccc(-c2cn(CCCCCCC(=O)NO)nn2)cc1 | 47.8% | – | – | – | – | 111 nM | 59 nM | 22 nM | 116 nM | 40.6% | – | – | – | – | – | – | 302 nM | 9900 nM | – |
| Cc1ccc(-c2cc(C(F)(F)F)nn2-c2ccc(S(N)(=O)=O)cc2)cc1 [CELECOXIB] | – | 69.2% | 28.4% | 0.59% | 0.35% | – | – | – | – | – | – | – | – | – | – | – | – | – | Activity (LNCaP [16]): 0.85% |
| COC(=O)Cc1c(C)n(Cc2ccc(-c3cn(CCCCCCC(=O)NO)nn3)cc2)c2ccc(OC)cc12 | – | – | – | – | – | 89 nM | 35 nM | 10 nM | 135 nM | 50.8% | 0.053% | 46.7% | 47.1% | 1.87% | 2.06% | Active | 407 nM | 1670 nM | IC50 [17]: 9610 nM; IC50 [18]: 8220 nM; IC50 [19]: 1350 nM; IC50 [20]: 8170 nM; IC50 at 72 h [21]: 5820 nM; IC50 [22]: 4020 nM; inhibition [23]: Active; inhibition (LNCaP [24]): Active; inhibition (LNCaP [25]): Active |
